In PMC3469748 (Molecular and cellular biochemistry, 2012) one finds IC50 data, which are given here for three compounds.

In assay [1] the target is T1, thioredoxin reductase 1 (TrxR) (Rattus norvegicus, UniProt O89049).
T1 sequence (O89049 1-499): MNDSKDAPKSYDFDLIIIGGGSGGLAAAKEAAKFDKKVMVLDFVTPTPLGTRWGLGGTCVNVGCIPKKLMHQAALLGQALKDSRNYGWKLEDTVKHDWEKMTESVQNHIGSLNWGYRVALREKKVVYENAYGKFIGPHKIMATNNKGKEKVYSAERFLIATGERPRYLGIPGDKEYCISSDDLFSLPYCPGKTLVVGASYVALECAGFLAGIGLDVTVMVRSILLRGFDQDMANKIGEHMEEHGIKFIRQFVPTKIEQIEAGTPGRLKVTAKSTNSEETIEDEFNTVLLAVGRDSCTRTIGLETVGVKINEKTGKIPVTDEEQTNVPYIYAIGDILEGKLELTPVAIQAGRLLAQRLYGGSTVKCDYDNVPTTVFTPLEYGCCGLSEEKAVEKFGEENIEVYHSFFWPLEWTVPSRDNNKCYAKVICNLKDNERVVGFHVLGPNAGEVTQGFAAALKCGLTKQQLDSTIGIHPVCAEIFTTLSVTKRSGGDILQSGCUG
As to the kind of experiment: DTNB reduction assay.

In assay [2] the target is T1, thioredoxin reductase 1 (TrxR). Put plainly: biochemical.

As a reminder, the IC50 is the concentration that gives 50% inhibition.

In the case of `CNC(=O)N(NS(C)(=O)=O)S(C)(=O)=O` [101MDCE], in assay [1], the IC50 stood at 5.37 ± 0.58 µM. Turning to `O=NN(CCCl)C(=O)NCCCl` [Carmustine, 1,3-bis(2-chloroethyl)-1-nitrosourea], 7.63 ± 0.72 µM corresponded to half-maximal inhibition in assay [2] (IC50). `CNC(=O)N(N(CCCl)S(C)(=O)=O)S(C)(=O)=O` [Laromustine, 1,2-bis(methylsulfonyl)-1-(2-chloroethyl)-2-[(methylamino)carbonyl]hydrazine] showed an IC50 in assay [1] of 4.65 ± 0.37 µM.
